This passage reports IC50 results from patent publication US9550763B2, “Heterocyclic ring and carbocyclic derivative” (Shionogi & Co., Ltd., priority 2012, dated 2017).

For the experiment, the target named is human P2X3 receptor (Homo sapiens (Human), UniProt P56373). The experiment can be described thus: Evaluation of human P2X3 receptor inhibitory activity (Test Example 1-1, FDSS 3000, 96-well, 50 nM ATP). Format: cell-based. The settings on record: human P2X3 receptor in C6BU-1 cells; Test Example 1-1 (compounds I-001 to I-300). A digest of the protocol: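 C6BU-1 cells stably expressing human P2X3, loaded with 4 μM Fluo-3-AM (pH 7.5), preincubated 5 min with compound before 50 nM ATP challenge; fluorescence followed 4 min on FDSS 3000. IC50 derived from peak/baseline fluorescence ratio, no-compound as 0% and buffer-instead-of-ATP as 100% inhibition.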
human P2X3 receptor, sequence (P56373 whole entry): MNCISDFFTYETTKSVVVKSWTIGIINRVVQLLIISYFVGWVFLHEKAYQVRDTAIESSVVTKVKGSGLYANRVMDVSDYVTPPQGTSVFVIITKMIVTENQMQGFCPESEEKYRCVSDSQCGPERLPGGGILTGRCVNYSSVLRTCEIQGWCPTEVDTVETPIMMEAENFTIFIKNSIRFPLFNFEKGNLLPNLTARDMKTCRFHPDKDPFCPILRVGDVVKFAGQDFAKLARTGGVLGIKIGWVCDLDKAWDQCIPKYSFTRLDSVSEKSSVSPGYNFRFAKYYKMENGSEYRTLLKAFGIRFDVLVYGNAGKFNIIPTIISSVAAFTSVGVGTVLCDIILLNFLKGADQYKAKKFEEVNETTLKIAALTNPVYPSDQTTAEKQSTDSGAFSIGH

One may read the IC50 as the concentration that inhibits the measured activity by half. High values mean weaker potency, low ones greater potency. Consider `C[C@@H](Cn1c(=O)cc(Nc2ccc(Oc3cccc(C#N)n3)c(F)c2)n(Cc2ccc(Cl)cc2)c1=O)C(=O)O` [Compound I-127], for which inhibition was half-maximal at 3 nM (IC50). Next, `CCOC(=O)c1c[nH]/c(=N\c2ccc(Oc3ccc(F)cn3)cc2)n(Cc2ccc(Cl)cc2)c1=O` [Compound I-128]: 35 nM; `CCc1c[nH]/c(=N\c2ccc(Oc3cccc(C#N)n3)cc2)n(Cc2ccc(Cl)cc2)c1=O` [Compound I-129]: 61 nM. Next, `CCc1c[nH]/c(=N\c2ccc(Oc3cccc(C#N)n3)c(C)c2)n(Cc2ccc(Cl)cc2)c1=O` [Compound I-130]: 32 nM. In turn, `O=C(Nc1cnc(Nc2ccc(Oc3nccs3)cc2)n(Cc2ccc(Cl)cc2)c1=O)C1CCOCC1` [Compound I-131] displayed a concentration for half-maximal inhibition (IC50) of 2 nM. Next, `O=C(Nc1cnc(Nc2ccc(Oc3ncccc3F)cc2)n(Cc2ccc(Cl)cc2)c1=O)C1CCOCC1` [Compound I-132]: 2 nM; `O=C(Nc1cnc(Nc2ccc(Oc3ccc(F)cn3)cc2)n(Cc2ccc(Cl)cc2)c1=O)C1CCOCC1` [Compound I-133]: 1 nM; `O=C(Nc1cnc(Nc2ccc(Oc3cccc(F)n3)cc2)n(Cc2ccc(Cl)cc2)c1=O)C1CCOCC1` [Compound I-134]: 2 nM. Next, `Cc1cc(Nc2ncc(NC(=O)C3CCOCC3)c(=O)n2Cc2ccc(Cl)cc2)ccc1Oc1cccc(F)n1` [Compound I-135]: 2 nM.

Take `Cc1cncc(Oc2ccc(Nc3ncc(NC(=O)C4CCOCC4)c(=O)n3Cc3ccc(Cl)cc3)cc2)n1` [Compound I-136]: the half-inhibitory concentration (IC50) worked out at 2 nM.

As for `Cc1ccc(Oc2ccc(Nc3ncc(NC(=O)C4CCOCC4)c(=O)n3Cc3ccc(Cl)cc3)cc2)nn1` [Compound I-137], half-maximal inhibition (IC50) required 1 nM.

`CCC(=O)Nc1c[nH]/c(=N\c2ccc(Oc3cnc(C#N)cn3)cc2)n(Cc2ccc(Cl)cc2)c1=O` [Compound I-138] yielded an IC50 of 4 nM.

`Cc1cc(/N=c2\[nH]cc(C(N)=O)c(=O)n2Cc2ccc(Cl)cc2)ccc1Oc1cccc(F)n1` [Compound I-139]: the half-inhibitory concentration (IC50) came to 16 nM. The result for `COc1cccc(Oc2ccc(/N=c3\[nH]cc(C(N)=O)c(=O)n3Cc3ccc(Cl)cc3)cc2C)n1` [Compound I-140] reads 99 nM; that for `O=C(O)c1c[nH]/c(=N\c2ccc(Oc3ccc(F)cn3)cc2)n(Cc2ccc(Cl)cc2)c1=O` [Compound I-141], 467 nM; that for `NC(=O)c1c[nH]/c(=N\c2ccc(Oc3ccc(F)cn3)cc2)n(Cc2ccc(Cl)cc2)c1=O` [Compound I-142], 26 nM. The result for `N#Cc1cnc(Oc2ccc(/N=c3\[nH]cc(NC(=O)C4CCOCC4)c(=O)n3Cc3ccc(Cl)cc3)cc2)cn1` [Compound I-143] reads 2 nM. The result for `CCc1c[nH]/c(=N\c2ccc(Oc3cccc(C(=O)O)n3)cc2)n(Cc2ccc(Cl)cc2)c1=O` [Compound I-144] reads 35 nM; that for `CCC(=O)Nc1c[nH]/c(=N\c2ccc(Oc3cncc(C)n3)cc2)n(Cc2ccc(Cl)cc2)c1=O` [Compound I-145], 40 nM; that for `CCC(=O)Nc1c[nH]/c(=N\c2ccc(Oc3ccc(C)nn3)cc2)n(Cc2ccc(Cl)cc2)c1=O` [Compound I-146], 26 nM. As to `C=C(C)c1c[nH]/c(=N\c2ccc(Oc3cccc(C#N)n3)cc2)n(Cc2ccc(Cl)cc2)c1=O` [Compound I-147], the IC50 came to 112 nM. On to `CCc1c[nH]/c(=N\c2ccc(Oc3cccc(C(=O)O)n3)c(C)c2)n(Cc2ccc(Cl)cc2)c1=O` [Compound I-148], for which 59 nM corresponded to half-maximal inhibition (IC50). Next, `Cc1noc(-c2c[nH]/c(=N\c3ccc(Oc4ccc(F)cn4)cc3)n(Cc3ccc(Cl)cc3)c2=O)n1` [Compound I-151]: 31 nM; `O=c1cc[nH]/c(=N\c2ccc(Oc3ccc(F)cn3)cc2)n1Cc1ccc(Cl)cc1` [Compound I-152]: 291 nM; `CCOC(=O)c1c[nH]/c(=N\c2ccc(Oc3cccc(C#N)n3)cc2)n(Cc2ccc(Cl)cc2)c1=O` [Compound I-153]: 21 nM. For `CCc1cn(Cc2ccc(Cl)cc2)c(Nc2ccc(Oc3ncc(C(=O)O)s3)cc2)nc1=O` [Compound I-154], the IC50 turned out to be 317 nM. Next, `O=C(NC1CCOCC1)c1cn(Cc2ccc(Cl)cc2)c(Nc2ccc(Oc3ncccc3F)cc2)nc1=O` [Compound I-155]: 17 nM; `O=C(NC1CCOCC1)c1cn(Cc2ccc(Cl)cc2)c(Nc2ccc(Oc3cccc(F)n3)cc2)nc1=O` [Compound I-156]: 6 nM. Next, `Cc1cc(Nc2nc(=O)c(C(=O)NC3CCOCC3)cn2Cc2ccc(Cl)cc2)ccc1Oc1cccc(F)n1` [Compound I-157]: 11 nM; `O=C(NC1CCOCC1)c1cn(Cc2ccc(Cl)cc2)c(Nc2ccc(Oc3ccc(F)cn3)cc2)nc1=O` [Compound I-158]: 11 nM; `Cc1cc(Nc2nc(=O)c(C(=O)NC3CCOCC3)cn2Cc2ccc(Cl)cc2)ccc1Oc1ncccc1F` [Compound I-160]: 26 nM. The result for `O=C(NC1CCOCC1)c1cn(Cc2ccc(Cl)cc2)c(Nc2ccc(Oc3nccs3)cc2)nc1=O` [Compound I-161] reads 22 nM; that for `CCC(=O)Nc1c[nH]/c(=N\c2ccc(Oc3ccnc(CO)c3)cc2)n(Cc2ccc(Cl)cc2)c1=O` [Compound I-163], 21 nM. As for `CCCn1c(=O)cc(Nc2ccc(Oc3cccc(C#N)n3)cc2)n(Cc2ccc(Cl)cc2)c1=O` [Compound I-164], the IC50 came out at 10 nM. Next, `CCCn1c(=O)cc(Nc2ccc(Oc3cccc(C(=O)OCC)c3)cn2)n(Cc2ccc(Cl)cc2)c1=O` [Compound I-166]: 169 nM. Next, `CCCn1c(=O)cc(Nc2ccc(Oc3cccc(C(=O)O)c3)cn2)n(Cc2ccc(Cl)cc2)c1=O` [Compound I-167]: 35 nM; `CCCn1c(=O)cc(Nc2ccc(Oc3cccc(C(=O)OC)c3)cc2)n(Cc2ccc(Cl)cc2)c1=O` [Compound I-168]: 159 nM. Next, `CCCn1c(=O)cc(Nc2ccc(Oc3cccc(C(=O)O)c3)cc2)n(Cc2ccc(Cl)cc2)c1=O` [Compound I-169]: 11 nM; `CCc1c[nH]/c(=N\c2ccc(Oc3cncc(C(=O)O)c3)cc2)n(Cc2ccc(Cl)cc2)c1=O` [Compound I-170]: 54 nM. As to `CCCn1c(=O)cc(Nc2ccc(Oc3cccc(C#N)n3)cn2)n(Cc2ccc(Cl)cc2)c1=O` [Compound I-171], inhibition was half-maximal at 21 nM (IC50). Take `CCCn1c(=O)cc(Nc2ccc(Oc3cccc(C(=O)O)n3)cn2)n(Cc2ccc(Cl)cc2)c1=O` [Compound I-172]: it took 16 nM to reach half-maximal inhibition (IC50). Next, `CCn1c(=O)cc(Nc2ccc(Oc3ccc(C(=O)OC)nn3)cc2)n(Cc2ccc(Cl)cc2)c1=O` [Compound I-173]: 4 nM; `CCn1c(=O)cc(Nc2ccc(Oc3ccc(C(=O)O)nn3)cc2)n(Cc2ccc(Cl)cc2)c1=O` [Compound I-174]: 36 nM; `O=C(NC1CCOCC1)c1cn(Cc2ccc(Cl)cc2)c(Nc2ccc(Oc3ccon3)cc2)nc1=O` [Compound I-175]: 37 nM. Next, `CCOC(=O)c1c[nH]/c(=N\c2ccc(Oc3ccc(C)nn3)cc2)n(Cc2ccc(Cl)cc2)c1=O` [Compound I-177]: 14 nM; `NC(=O)c1cccc(Oc2ccc(/N=c3\[nH]cc(C(N)=O)c(=O)n3Cc3ccc(Cl)cc3)cc2)n1` [Compound I-178]: 14 nM. Next, `Cc1ccc(Oc2ccc(/N=c3\[nH]cc(C(=O)O)c(=O)n3Cc3ccc(Cl)cc3)cc2)nn1` [Compound I-179]: 359 nM; `Cc1ccc(Oc2ccc(/N=c3\[nH]cc(C(N)=O)c(=O)n3Cc3ccc(Cl)cc3)cc2)nn1` [Compound I-180]: 21 nM; `O=C(Nc1c[nH]/c(=N\c2ccc(Oc3ccon3)cc2)n(Cc2ccc(Cl)cc2)c1=O)C1CNC1` [Compound I-181]: 131 nM. As for `CC(C)(C)OC(=O)N1CCC(C(=O)Nc2c[nH]/c(=N\c3ccc(Oc4ccon4)cc3)n(Cc3ccc(Cl)cc3)c2=O)CC1` [Compound I-182], the concentration for half-maximal inhibition (IC50) is 52 nM.

Turning to `O=c1c(NC(=O)[C@H]2C[C@H](O)C2)c[nH]/c(=N\c2ccc(Oc3ccon3)cc2)n1Cc1ccc(Cl)cc1` [Compound I-183], the half-maximal inhibitory concentration (IC50) was found to be 6 nM. The result for `O=C(Nc1c[nH]/c(=N\c2ccc(Oc3ccon3)cc2)n(Cc2ccc(Cl)cc2)c1=O)C1COC1` [Compound I-184] reads 14 nM.

As for `CN(C)CCC(=O)Nc1c[nH]/c(=N\c2ccc(Oc3ccon3)cc2)n(Cc2ccc(Cl)cc2)c1=O` [Compound I-185], the midpoint of inhibition, the IC50, lay at 158 nM. The result for `O=C(Nc1c[nH]/c(=N\c2ccc(Oc3ccon3)cc2)n(Cc2ccc(Cl)cc2)c1=O)C1CCNCC1` [Compound I-186] reads 72 nM; that for `CCCn1c(=O)cc(Nc2ccc(Oc3cccc(C#N)n3)c(C)n2)n(Cc2ccc(Cl)cc2)c1=O` [Compound I-187], 4 nM. Regarding `CCCn1c(=O)cc(Nc2ccc(Oc3cccc(C(=O)O)n3)c(C)n2)n(Cc2ccc(Cl)cc2)c1=O` [Compound I-188], half-maximal inhibition (IC50) required 6 nM. The result for `CCC(=O)N(CC)c1c[nH]/c(=N\c2ccc(Oc3cccc(C#N)n3)cc2)n(Cc2ccc(Cl)cc2)c1=O` [Compound I-189] reads 12 nM; that for `Cc1noc(-c2cn(Cc3ccc(Cl)cc3)/c(=N/c3ccc(Oc4cccc(F)n4)cc3)[nH]c2=O)n1` [Compound I-190, 1-(4-chlorobenzyl)-2-[4-(6-fluoro-2-pyridyloxy)phenylamino]-5-(3-methyl-1,2,4-oxadiazol-5-yl)pyrimidin-4(1H)-one], 6 nM. Consider `O=C(Nc1c[nH]/c(=N\c2ccc(Oc3ccon3)cc2)n(Cc2ccc(Cl)cc2)c1=O)C1CCOC1` (stereo not shown) [Compound I-192], for which the IC50 came to 6 nM. The result for `CCC(=O)N(CC)c1c[nH]/c(=N\c2ccc(Oc3cccc(C(=O)O)n3)cc2)n(Cc2ccc(Cl)cc2)c1=O` [Compound I-193] reads 6 nM; that for `O=c1c(-c2cccnc2O)c[nH]/c(=N\c2ccc(Oc3ccon3)cc2)n1Cc1ccc(Cl)cc1` [Compound I-194], 658 nM.
